# Assay results reported in patent publication US20040248953A1, “3-Arylsulfanyl and 3-heteroarylsulfanyl substituted benzo[b]thiophenes as therapeutic agents” (priority 2003, published 2004).
# Target: T1, PI3Kγ (Homo sapiens, UniProt P48736)
# T1 construct: HA; made in house; host or cells: Spodoptera frugiperda (Sf9) cells, baculovirus coinfection
# Assay: PI3Kγ in vitro kinase assay (32P-ATP, PIP2 lipid micelles, filter plate)
# Format: biochemical
# Settings: purified recombinant p101/p110γ protein with G protein β1/γ2 subunits; 20 μM ATP; 25 μM PIP2; 20 minutes at room temperature
# Experimental: Spodtera frugiperda cells, grown in ESF921 media, were coinfected with baculovirus expressing a glu-tagged p101 and baculovirus expressing an HA-tagged p110γ, at a 3:1 ratio of p101 baculovirus to p110γ baculovirus. Sf9 cells were grown to 1×10^7 total cells/mL in 10 L bioreactors and harvested 48-72 hours post infection. Samples of infected cells were then tested for expression of p101/p110γ PI3 kinase by immunoprecipitation and Western Blot analysis methods (see below). To purify PI3Kγ, 4 volumes of room temperature hypotonic lysis buffer (1 mM MgCl2, 1 mM DTT, 5 mM EGTA, 1 mM Pefabloc, 0.5 μM aprotinin, 5 μM leupeptin, 2 μM pepstatin, 5 μM E64, pH 8) per gram of cell paste, was poured onto frozen cell pellets with stirring, then lysed in a nitrogen “bomb” at 400 psi (599HC […], Parr Instrument Co, Moline, Ill.). NaCl was added to 150 mM, and sodium cholate was added to 1% and mixed for another 45 minutes. The lysates were clarified by centrifugation for 25 minutes at 14,000 rpm. The lysates were then loaded over anti-glu-linked Protein-G Sepaharose beads (Covance Research Products, Richmond, Calif.) using 20 mL resin/50 g cell paste. The column was washed with 15 volumes of wash buffer (1 mM DTT, 0.2 mM EGTA, 1 mM Pefabloc, 0.5 μM aprotinin, 5 μM leupeptin, 2 μM pepstatin, 5 μM E64, 150 mM NaCl, 1% sodium cholate, pH 8). PI3Kγ was eluted with 6 column volumes of wash buffer that contain 100 μg/mL of a peptide that competes for binding of the glu tag. The column fractions with the eluted protein (determined by taking OD280 readings) were collected and dialyzed in 0.2 mM EGTA, 1 mM DTT, 1 mM Pefabloc, 5 μM leupeptin, 0.5% sodium cholate, 150 mM NaCl, and 50% glycerol, pH 8. The fractions were stored at -80° C. until further use. Spodtera frugiperda cells were coinfected with baculovirus expressing a glu-tagged G protein β1 and baculovirus expressing a […], at a 1:1 ratio of glu-tagged G protein β1 baculovirus to G protein β2 baculovirus. Sf9 cells are grown in 10 L bioreactors and harvested 48-72 hours post infection. Samples of infected cells were tested for G protein β1/β2 expression by Western Blot analysis, as described below. Cell lysates were homogenized and loaded onto a column of glu-tagged beads as in Biological Example 1 and competed off the column with a glu peptide and processed as described in Biological Example 1. The inhibitory properties of the compounds in Table 1 were assayed in an in vitro PI3K assay. In a 96-well polypropylene plate, each well was spotted with […] of 50 times the desired final concentration of compound in DMSO. Purified recombinant p101/p110γ protein (0.03 μg; 2.7 nM) and G protein β1/γ2 subunits (0.09 μg; 57.7 nM) for each reaction was combined in the assay buffer (30 mM HEPES, 100 mM NaCl, 1 mM EGTA, and 1 mM DTT). ATP and [γ-^32P-ATP] (0.09 μCi) were added to this mixture so that the final ATP concentration in the reaction was 20 μM. Lipid micelles were formed by sonicating phosphatidylinositol4,5-diphosphate (PIP2), phosphatidylethanolamine (PE), and Na-cholate in the assay buffer for 10 minutes, adding MgCl2 and incubating on ice for 20 minutes, for final concentrations of 25 μM PIP2, 300 μM PE, 0.02% Na-cholate, and 10 mM MgCl2 in the reaction. The reactions were started by adding equal volumes lipid and enzyme mixture in a total volume of 50 μL, allowed to run for 20 minutes at room temperature, and stopped with 100 μL 75 mM H3PO4. The lipid product was transferred to a glass fiber filter plate and washed with 75 mM H3PO4 several times. The presence of radioactive lipid product (PIP3) was measured by adding Wallac Optiphase mix to each well and counting in a Wallac 1450 Trilux plate reader (PerkinElmer Life Sciences Inc., Boston, Mass. 02118). The IC50 for each compound tested is reported in μM in Table 1: […]
# T1 sequence (P48736 whole entry, species assumed): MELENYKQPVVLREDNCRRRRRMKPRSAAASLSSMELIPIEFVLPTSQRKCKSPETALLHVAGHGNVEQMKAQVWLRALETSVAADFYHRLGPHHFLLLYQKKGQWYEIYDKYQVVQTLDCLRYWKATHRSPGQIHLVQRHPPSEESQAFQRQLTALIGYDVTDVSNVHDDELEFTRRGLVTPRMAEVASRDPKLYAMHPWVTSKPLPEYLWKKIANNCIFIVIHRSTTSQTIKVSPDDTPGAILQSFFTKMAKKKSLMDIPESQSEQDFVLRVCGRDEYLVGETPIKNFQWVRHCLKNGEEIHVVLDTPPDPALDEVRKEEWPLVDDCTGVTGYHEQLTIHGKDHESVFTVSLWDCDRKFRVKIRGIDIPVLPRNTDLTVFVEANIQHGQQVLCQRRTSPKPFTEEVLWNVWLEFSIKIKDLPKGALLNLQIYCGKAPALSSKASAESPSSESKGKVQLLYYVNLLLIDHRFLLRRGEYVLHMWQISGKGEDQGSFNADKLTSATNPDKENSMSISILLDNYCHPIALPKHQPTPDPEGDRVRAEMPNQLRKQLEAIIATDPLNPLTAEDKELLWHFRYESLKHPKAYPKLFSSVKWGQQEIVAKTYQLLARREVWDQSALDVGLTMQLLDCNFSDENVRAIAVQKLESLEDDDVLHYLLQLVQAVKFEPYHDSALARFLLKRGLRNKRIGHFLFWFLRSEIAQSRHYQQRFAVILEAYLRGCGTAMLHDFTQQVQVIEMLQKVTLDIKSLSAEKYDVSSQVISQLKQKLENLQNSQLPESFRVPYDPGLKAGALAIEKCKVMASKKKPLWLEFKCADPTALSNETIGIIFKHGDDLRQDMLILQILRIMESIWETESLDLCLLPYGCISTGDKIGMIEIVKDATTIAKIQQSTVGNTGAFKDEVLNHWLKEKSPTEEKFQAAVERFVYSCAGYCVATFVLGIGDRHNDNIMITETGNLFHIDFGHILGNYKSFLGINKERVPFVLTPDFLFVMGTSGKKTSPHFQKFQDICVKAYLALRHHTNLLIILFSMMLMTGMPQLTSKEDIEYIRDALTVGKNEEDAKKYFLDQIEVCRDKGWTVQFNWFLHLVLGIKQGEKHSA
# T1 sequence (Q8WYR1 whole entry partner, species assumed): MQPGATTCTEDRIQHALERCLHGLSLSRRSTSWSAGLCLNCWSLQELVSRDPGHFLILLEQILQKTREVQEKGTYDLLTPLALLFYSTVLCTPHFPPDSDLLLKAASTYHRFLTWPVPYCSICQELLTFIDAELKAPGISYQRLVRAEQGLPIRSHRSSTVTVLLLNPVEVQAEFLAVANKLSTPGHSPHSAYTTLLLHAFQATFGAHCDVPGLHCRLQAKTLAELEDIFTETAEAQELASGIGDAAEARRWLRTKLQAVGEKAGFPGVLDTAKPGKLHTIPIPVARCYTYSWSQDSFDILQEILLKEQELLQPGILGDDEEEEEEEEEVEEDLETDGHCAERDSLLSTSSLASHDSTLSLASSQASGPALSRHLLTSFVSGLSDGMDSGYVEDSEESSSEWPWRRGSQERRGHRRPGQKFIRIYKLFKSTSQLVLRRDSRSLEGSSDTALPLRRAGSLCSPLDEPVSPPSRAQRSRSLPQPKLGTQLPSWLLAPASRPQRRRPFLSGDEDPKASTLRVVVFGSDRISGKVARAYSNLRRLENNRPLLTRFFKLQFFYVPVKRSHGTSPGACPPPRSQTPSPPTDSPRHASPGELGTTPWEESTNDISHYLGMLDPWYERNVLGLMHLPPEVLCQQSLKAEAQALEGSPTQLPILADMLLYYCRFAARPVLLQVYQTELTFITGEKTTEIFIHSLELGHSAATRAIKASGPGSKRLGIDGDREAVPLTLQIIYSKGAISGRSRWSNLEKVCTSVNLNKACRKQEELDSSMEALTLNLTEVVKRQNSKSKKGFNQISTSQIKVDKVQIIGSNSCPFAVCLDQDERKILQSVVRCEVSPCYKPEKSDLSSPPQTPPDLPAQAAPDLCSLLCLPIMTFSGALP
row,IC50 [nM],SMILES
1,575,"COc1cc2c(Sc3ccc(CCC(=O)O)cc3)c(C(=O)Nc3nnn[nH]3)sc2cc1C [Example 57, 3-{4-[5-Methoxy-6-methyl-2-(1H-tetrazol-5-ylcarbamoyl)-benzo[b]thiophen-3-ylsulfanyl]-phenyl}-propionic acid]"
2,1340,"COc1cc2sc(C(=O)Nc3nnn[nH]3)c(Sc3ccc(C(=O)O)cc3)c2cc1C [Example 58, 4-[6-Methoxy-5-methyl-2-(1H-tetrazol-5-ylcarbamoyl)-benzo[b]thiophen-3-ylsulfanyl]-benzoic acid]"
3,1320,"COc1cc2sc(C(=O)Nc3nnn[nH]3)c(Sc3ccc(CC(=O)O)cc3)c2cc1C [Example 59, {4-[6-Methoxy-5-methyl-2-(1H-tetrazol-5-ylcarbamoyl)-benzo[b]thiophen-3-ylsulfanyl]-phenyl}-acetic acid]"
4,495,"COc1cc2sc(C(=O)Nc3nnn[nH]3)c(SCc3ccc(C(=O)O)cc3)c2cc1C [Example 60, 4-[6-Methoxy-5-methyl-2-(1H-tetrazol-5-ylcarbamoyl)-benzo[b]thiophen-3-ylsulfanylmethyl]-benzoic acid]"
5,2610,"COc1cc2sc(C(=O)Nc3nnn[nH]3)c(Sc3ccc(CC(=O)O)cc3)c2cc1OC [Example 61, {4-[5,6-Dimethoxy-2-(1H-tetrazol-5-ylcarbamoyl)-benzo[b]thiophen-3-ylsulfanyl]-phenyl}-acetic acid]"
6,2670,"COc1cc2sc(C(=O)Nc3nnn[nH]3)c(Sc3ccc(CCC(=O)O)cc3)c2cc1OC [Example 62, 3-{4-[5,6-Dimethoxy-2-(1H-tetrazol-5-ylcarbamoyl)-benzo[b]thiophen-3-ylsulfanyl]-phenyl}-propionic acid]"
7,2710,"CCOc1ccc2sc(C(=O)Nc3nnn[nH]3)c(Sc3ccc(CC(=O)O)cc3)c2c1 [Example 63, {4-[5-Ethoxy-2-(1H-tetrazol-5-ylcarbamoyl)-benzo[b]thiophen-3-ylsulfanyl]-phenyl}-acetic acid]"
8,3620,"CCOc1ccc2sc(C(=O)Nc3nnn[nH]3)c(Sc3ccc(CCC(=O)O)cc3)c2c1 [Example 64, 3-{4-[5-Ethoxy-2-(1H-tetrazol-5-ylcarbamoyl)-benzo[b]thiophen-3-ylsulfanyl]-phenyl}-propionic acid]"
9,315,"COCc1cc2sc(C(=O)Nc3nnn[nH]3)c(Sc3ccccc3)c2cc1OC [Example 65, 5-Methoxy-6-methoxymethyl-3-phenylsulfanyl-benzo[b]thiophene-2-carboxylic acid(1H-tetrazol-5-yl)-amide]"
10,1170,"COc1cc2sc(C(=O)Nc3nn[nH]n3)c(SCc3ccc(C#N)cc3)c2cc1OC [Example 66, 3-(4-Cyano-benzylsulfanyl)-5,6-dimethoxy-benzo[b]thiophene-2-carboxylic acid(2H-tetrazol-5-yl)-amide]"
